Assay results taken from EPA's CvTdb concentration-time database.

Assays:
Assay in all cases: concentration in plasma after dosing
Rat [1] = settings: 5 min; dosed: Di-n-butyl phthalate; 20 mg/kg; iv; Male; Sprague-Dawley
Rat [2] = settings: 10 min; dosed: Di-n-butyl phthalate; 20 mg/kg; iv; Male; Sprague-Dawley
Rat [3] = settings: 5 min; dosed: Di-n-butyl phthalate; 20 mg/kg; iv; Male; Sprague-Dawley; remark: listed apart in the source
Rat [4] = settings: iv
Rat [5] = settings: 10 min; dosed: Di-n-butyl phthalate; 20 mg/kg; iv; Male; Sprague-Dawley; remark: listed apart in the source
Rat [6] = settings: dosed: perfluorohexane-1-sulphonic acid – potassium salt, 4 mg/kg, iv, Female, F344
Rat [7] = settings: dosed: perfluorohexane-1-sulphonic acid – potassium salt, 4 mg/kg, iv, Female, F344; remark: listed apart in the source
Rat [8] = settings: dosed: perfluorohexane-1-sulphonic acid – potassium salt, 4 mg/kg, iv, Female, F344; remark: listed apart in the source
Rat [9] = settings: dosed: perfluorohexane-1-sulphonic acid – potassium salt, 4 mg/kg, iv, Female, F344; remark: listed apart in the source
Rat [10] = settings: dosed: perfluorohexane-1-sulphonic acid – potassium salt, 4 mg/kg, iv, Female, F344; remark: listed apart in the source
Rat [11] = settings: 192 h; dosed: perfluorohexane-1-sulphonic acid – potassium salt; 4 mg/kg; iv; Female; F344
Rat [12] = settings: dosed: perfluorohexane-1-sulphonic acid – potassium salt, 4 mg/kg, iv, Female, F344; remark: listed apart in the source
Rat [13] = settings: dosed: perfluorohexane-1-sulphonic acid – potassium salt, 4 mg/kg, iv, Female, F344; remark: listed apart in the source
Rat [14] = settings: dosed: perfluorohexane-1-sulphonic acid – potassium salt, 4 mg/kg, iv, Female, F344; remark: listed apart in the source
Rat [15] = settings: dosed: perfluorohexane-1-sulphonic acid – potassium salt, 4 mg/kg, iv, Female, F344; remark: listed apart in the source
Rat [16] = settings: dosed: perfluorohexane-1-sulphonic acid – potassium salt, 4 mg/kg, iv, Female, F344; remark: listed apart in the source
Rat [17] = settings: dosed: perfluorohexane-1-sulphonic acid – potassium salt, 4 mg/kg, iv, Female, F344; remark: listed apart in the source
Rat [18] = settings: dosed: perfluorohexane-1-sulphonic acid – potassium salt, 4 mg/kg, iv, Female, F344; remark: listed apart in the source
Rat [19] = settings: dosed: perfluorohexane-1-sulphonic acid – potassium salt, 4 mg/kg, iv, Female, F344; remark: listed apart in the source
Rat [20] = settings: 1 h; dosed: perfluorohexane-1-sulphonic acid – potassium salt; 4 mg/kg; iv; Female; F344
Rat [21] = settings: dosed: perfluorohexane-1-sulphonic acid – potassium salt, 4 mg/kg, iv, Female, F344; remark: listed apart in the source
Rat [22] = settings: dosed: perfluorohexane-1-sulphonic acid – potassium salt, 4 mg/kg, iv, Female, F344; remark: listed apart in the source
Rat [23] = settings: dosed: perfluorohexane-1-sulphonic acid – potassium salt, 4 mg/kg, iv, Female, F344; remark: listed apart in the source
Rat [24] = settings: dosed: perfluorohexane-1-sulphonic acid – potassium salt, 4 mg/kg, iv, Female, F344; remark: listed apart in the source
Rat [25] = settings: dosed: perfluorohexane-1-sulphonic acid – potassium salt, 4 mg/kg, iv, Female, F344; remark: listed apart in the source
Rat [26] = settings: dosed: perfluorohexane-1-sulphonic acid – potassium salt, 4 mg/kg, iv, Female, F344; remark: listed apart in the source
Rat [27] = settings: dosed: perfluorohexane-1-sulphonic acid – potassium salt, 4 mg/kg, iv, Female, F344; remark: listed apart in the source
Rat [28] = settings: dosed: perfluorohexane-1-sulphonic acid – potassium salt, 4 mg/kg, iv, Female, F344; remark: listed apart in the source
Rat [29] = settings: dosed: perfluorohexane-1-sulphonic acid – potassium salt, 4 mg/kg, iv, Female, F344; remark: listed apart in the source
Rat [30] = settings: dosed: perfluorohexane-1-sulphonic acid – potassium salt, 4 mg/kg, iv, Female, F344; remark: listed apart in the source

CCCCOC(=O)c1ccccc1C(=O)OCCCC [Di-n-butyl phthalate]
Settings	concentration in plasma [ng/mL]
Rat [1]	10700
Rat [2]	2950
Rat [3]	1210
Rat [5]	4220

Rat [4], dosed: Di-n-butyl phthalate, 20 mg/kg, Male, Sprague-Dawley
Settings	concentration in plasma [ng/mL]
5 min	9370
10 min	3520
20 min	957

O=S(=O)([O-])C(F)(F)C(F)(F)C(F)(F)C(F)(F)C(F)(F)C(F)(F)F.[K+] [perfluorohexane-1-sulphonic acid – potassium salt]
Settings	concentration in plasma [ng/mL]
Rat [6], 1 h	3840
Rat [6], 48 h	1000
Rat [7], 5 min	6140
Rat [7], 6 h	2330
Rat [7], 192 h	118
Rat [8], 5 min	842
Rat [8], 6 h	298
Rat [9], 0.5 h	4010
Rat [9], 24 h	1450
Rat [10], 0.5 h	4140
Rat [10], 24 h	1650
Rat [12], 1 h	3150
Rat [12], 48 h	1130
Rat [13], 0.5 h	2900
Rat [13], 12 h	2090
Rat [13], 1200 h	288
Rat [14], 0.5 h	3610
Rat [14], 12 h	2480
Rat [14], 864 h	496
Rat [15], 0.25 h	5150
Rat [15], 12 h	2040
Rat [16], 3 h	3290
Rat [16], 96 h	566
Rat [17], 1 h	3180
Rat [17], 48 h	842
Rat [18], 3 h	3150
Rat [18], 96 h	484
Rat [19], 0.5 h	3970
Rat [19], 24 h	2200
Rat [19], 1200 h	494
Rat [21], 3 h	2910
Rat [21], 5 min	6770
Rat [21], 528 h	879
Rat [22], 0.25 h	4330
Rat [22], 12 h	1840
Rat [23], 0.25 h	4180
Rat [23], 6 h	2530
Rat [23], 864 h	818
Rat [24], 3 h	2380
Rat [24], 5 min	4710
Rat [24], 192 h	1450
Rat [25], 1 h	3140
Rat [25], 24 h	2330
Rat [25], 1200 h	393
Rat [26], 3 h	2550
Rat [26], 96 h	387
Rat [27], 0.25 h	4180
Rat [27], 12 h	1750
Rat [28], 0.25 h	2050
Rat [28], 6 h	1440
Rat [28], 528 h	491
Rat [29], 5 min	5590
Rat [29], 6 h	2440
Rat [29], 192 h	126
Rat [30], 0.5 h	4200
Rat [30], 24 h	1370

Settings	concentration in plasma [ng/mL]
Rat [11]	1390
Rat [20]	170

Rat [4], dosed: perfluorohexane-1-sulphonic acid – potassium salt, 4 mg/kg, Female, F344
Settings	concentration in plasma [ng/mL]
0.25 h	3900
1 h	3190
3 h	1890
5 min	5260
6 h	2390
12 h	2230
24 h	2030
192 h	1200
528 h	519
864 h	551
